# Source: US7435252B2, “Control of microorganisms in the sino-nasal tract” (priority 2003, dated 2008)
# Entries after “also recorded” stand apart in the source; their conditions may differ.
# Columns and labels:
# [1] = test system: Porphyromonas Gingivalis and Prevotella Intermedia; test: Lethal photosensitization of oral pathogens in vitro, colony count after methylene blue stain and red-filtered halogen light; assay type: cell-based
# Method: Suitable stain dosages for providing lethal sensitization of oral pathogens are determined in vitro by the following procedure. An objective is to determine the minimum duration of light exposure and minimum agent dilution required to achieve at least a 50% reduction in bacteria counts. Experimental tests are performed on two common pathogens using a continuously working, high intensity, red filtered halogen lamp. Red light from the filtered halogen lamp is transmitted through a flexible light guide to radiate downwardly onto petri dishes containing samples of live bacteria of species Porphyromonas Gingivalis and Prevotella Intermedia using the protocols described below.
# (§1) Bacteria. Prevotella Intermedia is isolated from patient sample material, identified in the laboratory using standard diagnostic test systems (Remel Inc., Lenexa, Kans., USA) and is maintained by twice-weekly subculture in thioglycollate medium (Becton Dickinson and Co, Sparks, Md., USA). P. gingivalis ATCC 33277 obtained from Remel Inc., is maintained by a twice-weekly subculture on CDC anaerobe blood agar (Becton Dickinson and Co, USA) and in thioglycollate medium (Becton Dickinson and Co, USA).
# (§2) Light Source. The source for light energy is a continuously working, high intensity halogen lamp having a built-in 250-Watt quartz halogen light source, model 1-250 supplied by Medithon, New York, N.Y., USA. Such lights are customarily employed for ear, nose or throat procedures. The light is transmitted through a flexible light guide and filtered to maintain maximum energy output at wavelengths in the vicinity of about 650 nm using a broadband red filter (Edmund Optics Inc., Barrington, N.J., USA). The light output power density measured at 3 cm distance from the end of the light guide with filter is about 50 milliwatts/cm2.
# Photosensitizer. […] Serial dilutions with water of initial solution with respective concentrations of 0.1%, 0.075%, 0.05%, 0.025% and 0.01% are prepared from the initial solution using sterile 10-ml bottles of normal saline and sterile syringes.
# Lethal photosensitization of P. Intermedia. Petri dishes containing CDC anaerobe blood agar (Becton Dickinson and Co, USA) are inoculated with 0.5 ml of broth containing 5×10^5 CFU/ml and left closed at room temperature for about 10 minutes to let the broth penetrate the agar media. […] Only plates with concentrations of 0.01%, and 0.025% are used in the experiment with 20 min light exposure. Four plates are used for each experiment. […] The controls are covered to protect them from ambient light. […] A total of 108 subcultures is used for the experiment. Plates are incubated in anaerobic conditions in the jars using anaerobic pack kits (BBL GasPak Plus, Becton Dickinson and Co, Sparks, Md., USA) at 37° C. for 24 hours. Samples of the resulting culture growth are taken from each plate with sterile […] standard loop, dispensed in 1 ml of sterile NS and placed at the same media. Cultures are incubated at anaerobic conditions at 37° C. for another 24 hours, and after that the resulting colony count is performed on each plate.
# Lethal photosensitization of P. Gingivalis. Serial dilutions of the P. gingivalis culture are prepared from the initial culture preserved on plates using 1:L sterile standard loop (Becton Dickinson and Co, USA) and sterile NS. AVitek calorimeter (Hach Company, Loveland, Colo., USA) is used to achieve a final concentration of about 5×10^3 CFU/ml from an initial 0.5 standard McFarland suspension of 10^8 CFU/ml. Plates containing CDC anaerobic blood agar (Becton Dickinson and Co, USA) are inoculated with the resulting suspension using sterile 10:L standard loops (Becton Dickinson and Co, USA). […] Plates are also incubated at 37° C. in the tightly closed jars supplied with anaerobic pack kits (BBL GasPak Plus, Becton Dickinson and Co, USA) for 24 hours, and the resulting colony count is performed on each plate.
# Statistical analyses can be carried out using single-factor analysis of variance.
# P. gingivalis ATCC 33277 = test: Lethal photosensitization of P. Gingivalis, colony count; assay type: cell-based, Porphyromonas Gingivalis
# Source text: as §1, §2
# Photosensitizer. […] Serial dilutions with water of initial solution with respective concentrations of 0.1%, 0.075%, 0.05%, 0.025% and 0.01% are prepared from the initial solution using sterile 10-ml bottles of normal saline and sterile syringes. […]
# [2] = test system: Porphyromonas Gingivalis and Prevotella Intermedia; test: Lethal photosensitization of oral pathogens in vitro, colony count after methylene blue stain and red-filtered halogen light; assay type: cell-based; conditions: methylene blue 0.001% or 0.025%, without halogen light
# Candida albicans = conditions: MB 450 and 500 microgram/mL, diode laser light 664 nm, 275 J/cm fiber length, 400 mW, 687.5 seconds, immunosuppressed murine model; cited from earlier work
# E. Coli = conditions: gram negative (E. Coli); cited from earlier work
# Staph aureus = conditions: gram positive (Staph aureus); cited from earlier work
SMILES,"Reduction of bacteria ([1]; 0.05% methylene blue alone, without exposure to light)","difference between exposure for 10 and 20 minutes ([1]; either species, any concentration of methylene blue)","reduction in bacteria counts ([1]; light exposure 1 min, methylene blue 0.05% and higher)","reduction in bacteria counts ([1]; light exposure 5 min, methylene blue 0.025%)","bactericidal effect ([1]; methylene blue 0.01% or higher with red-filtered high-intensity light, exposure less than 10 minutes, accumulated energy 30 J/cm^2)","killing with duration of light exposure ([1]; methylene blue 0.025%, time intervals 5 and 10 min, both cultures)","killing with duration of light exposure ([1]; methylene blue 0.05%, time intervals 1 min, 5 min and 10 min, both cultures)","bacterial count reduction ([1]; methylene blue 0.075% and 0.1%, light exposure 1 min, both cultures)","bactericidal effect ([1]; methylene blue 0.075% and 0.1%, without light exposure)","bacterial killing (P. gingivalis ATCC 33277; methylene blue 0.01%, without light exposure, P. gingivalis culture)","bactericidal effect (P. gingivalis ATCC 33277; methylene blue 0.1%, P. gingivalis)",killing bacteria [2],eradication of Candida albicans (Candida albicans),phototoxicity (E. Coli),phototoxicity (Staph aureus)
CN(C)c1ccc2nc3ccc(=[N+](C)C)cc-3sc2c1 [methylene blue],insignificant,No statistically significant difference,Significant reduction in bacteria counts,Significant reduction in bacteria counts,bactericidal effect,statistically significant increased killing with duration,statistically significant increased killing with duration,statistically significant bacterial count reduction,significant bactericidal effect; also recorded: significantly bactericidal,statistically significant bacterial killing,bactericidal effect,"nor concentrations of methylene blue of 0.001% or 0.025%, without halogen light, appeared to be effective in killing bacteria",totally eradicate,bacterial cell death,bacterial cell death
Cc1cc2nc3ccc(N(C)C)cc3[s+]c2cc1N.[Cl-] [toluidine blue 0],–,–,–,–,–,–,–,–,–,–,–,–,–,bacterial cell death,bacterial cell death
